Legend:
[1] = target: T1, human μ-opioid receptor (OPRM1) (Homo sapiens, UniProt P35372); assay: cell-based; format: cell-based; conditions: for EC50: MOR Agonist EC50 ± SEM; for Emax: read-out: MOR Agonist %Emax ± SEM
T1 construct: host or cells: cAMP Hunter CHO-K1

[2] = target: human κ-opioid receptor (OPRK1) (Homo sapiens, UniProt P41145); assay: Forskolin-induced cAMP accumulation assay, KOR agonist mode; conditions: for Emax: CHO-K1, read-out: KOR Agonist %Emax ± SEM
[3] = target: human δ-opioid receptor (OPRD1) (Homo sapiens, UniProt P41143); assay: Forskolin-induced cAMP accumulation assay, DOR agonist mode; conditions: for Emax: CHO-K1, read-out: DOR Agonist %Emax ± SEM; for DOR efficacy in words: cAMP assay
Chain of human δ-opioid receptor (OPRD1) (P41143 whole entry): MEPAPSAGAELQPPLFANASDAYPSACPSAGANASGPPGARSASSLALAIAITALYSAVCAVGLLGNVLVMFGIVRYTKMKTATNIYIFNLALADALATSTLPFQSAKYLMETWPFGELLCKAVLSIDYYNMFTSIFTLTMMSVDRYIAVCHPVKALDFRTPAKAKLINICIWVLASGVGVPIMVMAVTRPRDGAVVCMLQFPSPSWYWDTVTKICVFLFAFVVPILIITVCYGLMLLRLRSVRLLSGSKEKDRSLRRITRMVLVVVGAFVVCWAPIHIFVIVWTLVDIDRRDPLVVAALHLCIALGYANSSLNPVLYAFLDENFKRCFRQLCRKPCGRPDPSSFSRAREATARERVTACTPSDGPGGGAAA

T1 sequence (P35372 whole entry): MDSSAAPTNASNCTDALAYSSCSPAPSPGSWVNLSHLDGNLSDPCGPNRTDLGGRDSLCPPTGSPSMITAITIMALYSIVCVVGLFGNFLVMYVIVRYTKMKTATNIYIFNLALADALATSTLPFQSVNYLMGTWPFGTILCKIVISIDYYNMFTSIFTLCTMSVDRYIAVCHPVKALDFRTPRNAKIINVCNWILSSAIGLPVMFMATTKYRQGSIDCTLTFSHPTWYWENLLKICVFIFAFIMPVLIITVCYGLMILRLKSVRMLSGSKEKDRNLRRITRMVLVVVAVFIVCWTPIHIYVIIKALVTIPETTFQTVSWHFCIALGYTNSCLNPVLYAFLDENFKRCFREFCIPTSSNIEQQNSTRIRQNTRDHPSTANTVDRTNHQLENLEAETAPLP
Chain of human κ-opioid receptor (OPRK1) (P41145 whole entry): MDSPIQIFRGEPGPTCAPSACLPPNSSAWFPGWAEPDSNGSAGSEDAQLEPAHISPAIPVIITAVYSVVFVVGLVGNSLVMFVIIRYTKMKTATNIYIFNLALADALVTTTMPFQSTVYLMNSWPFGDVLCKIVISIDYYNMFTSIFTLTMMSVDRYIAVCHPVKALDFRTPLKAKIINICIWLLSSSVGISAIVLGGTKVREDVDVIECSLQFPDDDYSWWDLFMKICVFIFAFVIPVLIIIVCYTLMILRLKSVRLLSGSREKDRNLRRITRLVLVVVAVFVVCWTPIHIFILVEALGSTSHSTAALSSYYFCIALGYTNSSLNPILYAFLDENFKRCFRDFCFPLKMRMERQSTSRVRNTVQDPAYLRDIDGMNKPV

Structure (SMILES): CC1C2Cc3ccc(O)cc3C1(C)CCN2CCc1ccccc1C(F)(F)F [Compound 11, (1R,5R,9R)-6,11-Dimethyl-3-(2-trifluoromethylphenethyl)-1,2,3,4,5,6-hexahydro-2,6-methanobenzo[d]azocin-8-ol]
- EC50 [1]: 6 nM
- Emax [1]: 102%
- EC50 [2]: 36 ± 3 nM
- Emax [2]: 72%
- EC50 [3]: 24 ± 5 nM
- Emax [3]: 77%

Structure (SMILES): CC1C2Cc3ccc(O)cc3C1(C)CCN2CCc1ccc(Br)cc1 [Compound 12, (1R,5R,9R)-6,11-Dimethyl-3-(4-bromophenethyl)-1,2,3,4,5,6-hexahydro-2,6-methanobenzo[d]azocin-8-ol]
- EC50 [1]: 0.7 nM
- Emax [1]: 102%
- EC50 [2]: 5 ± 2 nM
- Emax [2]: 100%
- EC50 [3]: 1.1 ± 0.3 nM
- Emax [3]: 89%
- DOR efficacy in words [3]: partial DOR agonists

Structure (SMILES): C=C1c2ccc(O)cc2[C@@]2(C)CCN(CCc3ccccc3)[C@@H]1[C@H]2C [(+)-38, (2R,6S,11S)-6,11-Dimethyl-1-methylene-3-phenethyl-1,2,3,4,5,6-hexahydro-2,6-methanobenzo[d]azocin-8-ol]
- EC50 [1]: 70 nM
- Emax [1]: 102%
- EC50 [2]: 1180 ± 46 nM
- Emax [2]: 53%
- EC50 [3]: 978 ± 374 nM
- Emax [3]: 92%

Structure (SMILES): CC1C2Cc3ccc(O)cc3C1(C)CCN2CCc1ccc([N+](=O)[O-])cc1 [Compound 3, (1R,5R,9R)-6,11-Dimethyl-3-(4-nitrophenethyl)-1,2,3,4,5,6-hexahydro-2,6-methanobenzo[d]azocin-8-ol]
- EC50 [1]: 0.3 nM
- Emax [1]: 101%
- EC50 [2]: 13 ± 0.5 nM
- Emax [2]: 46%
- EC50 [3]: 2.7 ± 1 nM
- Emax [3]: 88%
- DOR efficacy in words [3]: partial DOR agonists

Structure (SMILES): COc1ccc(CCN2CCC3(C)c4cc(O)ccc4CC2C3C)cc1 [Compound 18, (1R,5R,9R)-6,11-Dimethyl-3-(4-methoxyphenethyl)-1,2,3,4,5,6-hexahydro-2,6-methanobenzo[d]azocin-8-ol]
- EC50 [1]: 1.2 nM
- Emax [1]: 103%
- EC50 [2]: 9 ± 2 nM
- Emax [2]: 89%
- EC50 [3]: 4 ± 1 nM
- Emax [3]: 87%

Structure (SMILES): CC1C2Cc3ccc(O)cc3C1(C)CCN2CCc1ccc(O)cc1 [Compound 20, (1R,5R,9R)-6,11-Dimethyl-3-(4-hydroxyphenethyl)-1,2,3,4,5,6-hexahydro-2,6-methanobenzo[d]azocin-8-ol]
- MOR potency relative to morphine (times more potent than morphine) [1]: ~40 times
- EC50 [1]: 0.13 nM
- Emax [1]: 102%
- EC50 [2]: 8 ± 3 nM
- Emax [2]: 97%
- EC50 [3]: 5 ± 1 nM
- Emax [3]: 84%

Structure (SMILES): CC1C2Cc3ccc(O)cc3C1(C)CCN2CCc1cccc([N+](=O)[O-])c1 [Compound 4, (1R,5R,9R)-6,11-Dimethyl-3-(3-nitrophenethyl)-1,2,3,4,5,6-hexahydro-2,6-methanobenzo[d]azocin-8-ol]
- EC50 [1]: 26 nM
- Emax [1]: 71%

Structure (SMILES): CC1C2Cc3ccc(O)cc3C1(C)CCN2CC=Cc1ccccc1 [Compound 25, (1R,5R,9R)-6,11-Dimethyl-3-(cinnamyl)-1,2,3,4,5,6-hexahydro-2,6-methanobenzo[d]azocin-8-ol]
- MOR agonist potency / efficacy in words [1]: little or no potency
- EC50 [1]: 244 nM
- Emax [1]: 101%

Structure (SMILES): CC1C2Cc3ccc(O)cc3C1(C)CCN2CCc1ccccc1F [Compound 8, (1R,5R,9R)-6,11-Dimethyl-3-(2-fluorophenethyl)-1,2,3,4,5,6-hexahydro-2,6-methanobenzo[d]azocin-8-ol]
- MOR potency relative to morphine (times more potent than morphine) [1]: about 30 times
- EC50 [1]: 0.2 nM
- Emax [1]: 101%
- EC50 [2]: 6 ± 1 nM
- Emax [2]: 45%
- EC50 [3]: 6 ± 2 nM
- Emax [3]: 87%

Structure (SMILES): CC1C2Cc3ccc(O)cc3C1(C)CCN2CCc1ccc(C(F)(F)F)cc1 [Compound 9, (1R,5R,9R)-6,11-Dimethyl-3-(4-trifluoromethylphenethyl)-1,2,3,4,5,6-hexahydro-2,6-methanobenzo[d]azocin-8-ol]
- EC50 [1]: 2 nM
- Emax [1]: 102%
- EC50 [2]: 23 ± 5 nM
- Emax [2]: 100%
- EC50 [3]: 3 ± 1 nM
- Emax [3]: 72%
- DOR efficacy in words [3]: partial DOR agonists

Structure (SMILES): CC1C2Cc3ccc(O)cc3C1(C)CCN2CCc1ccc(Cl)cc1Cl [Compound 21, (1R,5R,9R)-6,11-Dimethyl-3-(2,4-dichlorophenethyl)-1,2,3,4,5,6-hexahydro-2,6-methanobenzo[d]azocin-8-ol]
- EC50 [1]: 5 nM
- Emax [1]: 103%
- EC50 [2]: 42 ± 10 nM
- Emax [2]: 93%
- EC50 [3]: 37 ± 9 nM
- Emax [3]: 86%

Structure (SMILES): CC1C2Cc3ccc(O)cc3C1(C)CCN2CCc1cccc(C(F)(F)F)c1 [Compound 10, (1R,5R,9R)-6,11-Dimethyl-3-(3-trifluoromethylphenethyl)-1,2,3,4,5,6-hexahydro-2,6-methanobenzo[d]azocin-8-ol]
- EC50 [1]: 167 nM
- Emax [1]: 63%

Structure (SMILES): CC1C2Cc3ccc(O)cc3C1(C)CCN2CCc1ccc(Cl)cc1 [Compound 15, (1R,5R,9R)-6,11-Dimethyl-3-(4-chlorophenethyl)-1,2,3,4,5,6-hexahydro-2,6-methanobenzo[d]azocin-8-ol]
- EC50 [1]: 1.3 nM
- Emax [1]: 103%
- EC50 [2]: 5 ± 1 nM
- Emax [2]: 97%
- EC50 [3]: 1.2 ± 0.5 nM
- Emax [3]: 89%
- DOR efficacy in words [3]: partial DOR agonists

Structure (SMILES): CC1C2Cc3ccc(O)cc3C1(C)CCN2CCc1ccccc1Cl [Compound 17, (1R,5R,9R)-6,11-Dimethyl-3-(2-chlorophenethyl)-1,2,3,4,5,6-hexahydro-2,6-methanobenzo[d]azocin-8-ol]
- EC50 [1]: 1.4 nM
- Emax [1]: 101%
- EC50 [2]: 8 ± 1 nM
- Emax [2]: 57%
- EC50 [3]: 15 ± 4 nM
- Emax [3]: 87%

Structure (SMILES): C[C@H]1[C@H]2Cc3ccc(O)cc3[C@]1(C)CCN2CCCc1ccccc1 [Compound 24, (1R,5R,9R)-6,11-Dimethyl-3-(phenylpropyl)-1,2,3,4,5,6-hexahydro-2,6-methanobenzo[d]azocin-8-ol]
- MOR agonist potency / efficacy in words [1]: little or no potency
- EC50 [1]: 69 nM
- Emax [1]: 101%

Structure (SMILES): C[C@H]1[C@H]2Cc3ccc(O)cc3[C@]1(C)CCN2CCCc1ccc([N+](=O)[O-])cc1 [Compound 31, (1R,5R,9R)-6,11-Dimethyl-3-(3-(4-nitrophenyl)propyl)-1,2,3,4,5,6-hexahydro-2,6-methanobenzo[d]azocin-8-ol]
- MOR agonist potency / efficacy in words [1]: little or no potency
- EC50 [1]: ≥ 10000 nM

Structure (SMILES): C[C@@H]1[C@@H]2C(O)c3ccc(O)cc3[C@@]1(C)CCN2CCc1ccccc1 (single isomer, unassigned; (+)) [(+)-36]
- EC50 [1]: 25.2 nM
- Emax [1]: 103%
- EC50 [2]: > 10000 nM
- EC50 [3]: 1910 ± 232 nM
- Emax [3]: 97%

Structure (SMILES): Cc1ccc(CCN2CCC3(C)c4cc(O)ccc4CC2C3C)cc1 [Compound 19, (1R,5R,9R)-6,11-Dimethyl-3-(4-methylphenethyl)-1,2,3,4,5,6-hexahydro-2,6-methanobenzo[d]azocin-8-ol]
- EC50 [1]: 1.4 nM
- Emax [1]: 103%
- EC50 [2]: 13 ± 3 nM
- Emax [2]: 93%
- EC50 [3]: 5 ± 2 nM
- Emax [3]: 87%

Structure (SMILES): C=C1c2ccc(O)cc2[C@]2(C)CCN(CCc3ccccc3)[C@H]1[C@@H]2C [(−)-38, (2S,6R,11R)-6,11-Dimethyl-1-methylene-3-phenethyl-1,2,3,4,5,6-hexahydro-2,6-methanobenzo[d]azocin-8-ol]
- MOR potency relative to morphine (times more potent than morphine) [1]: about 25 times
- EC50 [1]: 0.23 nM
- Emax [1]: 101%
- EC50 [2]: 9.5 ± 2 nM
- Emax [2]: 57 ± 45.6%
- EC50 [3]: 4.9 ± 3 nM
- Emax [3]: 89%
